Reference: US12091399B2, “Phenyltetrazole derivatives as plasma kallikrein inhibitors” (Boehringer Ingelheim International GmbH, priority 2018, dated 2024)
Square brackets hold non-standard residues; d marks the D form. Peptide text beside a SMILES is read from it. * marks the point of attachment. pNA = O=[N+]([O-])c1ccc(N*)cc1; AMC = Cc1cc(=O)oc2cc(N*)ccc12; Cha = N[CH](CC1CCCCC1)C(=O)O; Abu = CC[CH](N)C(=O)O; Ms = CS(=O)(=O)*

Assays:
Type in all cases: biochemical
Human PKK [1] = target: T1, Human PKK (Homo sapiens (Human), UniProt P03952); assay: Inhibition of PKK (Ki), kinetic assay; conditions: 24° C., 0.25 mM H-Pro-Phe-Arg-AMC, IC50 corrected for KM
Method: (§1) The ability of compounds of formula (I) to inhibit plasma kallikrein (PKK), Factor XIIa (FXIIa), Factor XIa (FXIa), Factor Xa (FXa), Factor IIa (alpha-thrombin; FIIa), plasmin, trypsin, tissue kallikrein 1 (TK1), Factor Vila (FVIIa), or FVIIa complexed with Tissue Factor, phospholipids and CaCl2) (FVIIa/TF/PL/CaCl2) was determined using the following biochemical assays in assay buffer (100 mM Tris, 150 mM NaCL, adjusted to a pH of 7.8 with HCl, and containing 0.1% (w/v) BSA and 0.05% (v/v) Tween20) in the presence of 1% (v/v) DMSO:
Human PKK (1.78 nM or 0.025 U/mL; Enzyme Research Laboratories) was incubated at 24° C. with 0.25 mM fluorogenic substrate H-Pro-Phe-Arg-AMC (11295 from Bachem) and various concentrations of the test compound in assay buffer. Measurements were performed in a kinetic interval every 2nd minute for 16 min using a Spectramax M5 (Molecular Devices) with the following settings of the wavelength excitation of 350 nm and wavelength emission of 450 nm. The number of the compound corresponds to the number of the Example in the experimental section.
(§2) The pIC50 values were then fitted using a four-parametric fitting procedure using GraphPad Prism (version 6; GraphPad Software, Inc.). Respective Ki values were obtained by correction of the IC50 values for the respective KM value of the used substrate (see Table A for the obtained KM values of the used substrates) using the following formula: […]
Where the IC50 is in mol/L and the KM value in mmol/L.

[2] = target: PKK in kaolin activated human platelet poor plasma (Homo sapiens (Human), UniProt P03952); assay: Inhibition of PKK in kaolin activated human PPP; conditions: global fit over 25, 75, 250, 750 μg/mL kaolin, 37° C.
Method: Platelet poor plasma (PPP) obtained from human wholeblood, anticoagulated with Na-Citrate, was incubated with various concentrations of the test compound together with either 25, 75, 250, or 750 μg/mL kaolin in assay buffer for 20 min at 37° C. such that for each kaolin dose used a concentration response was obtained for the test compound.
The number of the compound corresponds to the number of the Example in the experimental section.

Human PKK [3] = target: T1, Human PKK; assay: Inhibition of PKK using an endpoint assay (human PKK); conditions: 1 h at rt, 0.10 μM H-Pro-Phe-Arg-AMC
Method: as §1
Subsequently, PPACK II (Calbiochem) was added as a stop solution to achieve a final concentration of 1 μM and fluorescence was measured using an Envision Reader (PerkinElmer) with the wavelength excitation setting of 355 nm and the wavelength emission setting of 460 nm. The number of the compound corresponds to the number of the Example in the experimental section.

FVIIa/TF/PL/CaCl2 = FVIIa/TF/PL/CaCl2 (Homo sapiens (Human), UniProt P08709); assay: Inhibition of FVIIa/TF/PL/CaCl2 (Ki); conditions: substrate KM, enzyme FVIIa/TF/PL/CaCl2
Method: as §1
Human FVIIa (300 nM or 585 U/mL; Enzyme Research Laboratories) together with 10 mM CaCl2)*2H2O and 13.3% (v/v) Dade®Innovin® (Siemens; OQUMI94E0002(5534), which contains recombinant human tissue factor synthetic phospholipids (thromboplastin), was incubated at 24° C. with 1.5 mM chromogenic Pefachrome® FVIIa (Loxo) and various concentrations of the test compound in assay buffer. Measurements were performed in a kinetic interval every 2nd minute for 16 min using a Spectramax M5 (Molecular Devices) measuring the optical absorbance at 405 nm.
(§3) The pIC50 values were then fitted using a four-parametric fitting procedure using GraphPad Prism (version 6; GraphPad Software, Inc.). […]

Human FVIIa = Human FVIIa (Homo sapiens (Human), UniProt P08709); assay: Inhibition of FVIIa (Ki); conditions: substrate KM, enzyme FVIIa
Method: as §1
Human FVIIa (0.86 nM or 0.01 U/mL; Enzyme Research Laboratories) was incubated at 24° C. with 1.5 mM chromogenic Pefachrome® FVIIa (Loxo) and various concentrations of the test compound in assay buffer. Measurements were performed in a kinetic interval every 2nd minute for 16 min using a Spectramax M5 (Molecular Devices) measuring the optical absorbance at 405 nm.
as §2

human TK1 = human TK1 (Homo sapiens (Human), UniProt P06870); assay: Inhibition of TK1 (Ki); conditions: substrate KM, enzyme TK1
Method: as §1
Prior to the assay, human TK1 (R&D Systems) was activated by incubation with human trypsin (Calbiochem) in a 1:10,000 ratio for 15 min at 37° C. For assaying TK1 inhibitory activity, activated TK1 (31.25 nM or 1 U/mL) was incubated at 24° C. with 0.1 mM fluorogenic substrate H-Pro-Phe-Arg-AMC (11295 from Bachem) and various concentrations of the test compound in assay buffer. Measurements were performed in a kinetic interval every 2nd minute for 16 min using a Spectramax M5 (Molecular Devices) with the following settings of the wavelength excitation of 350 nm and wavelength emission of 450 nm.
as §3

Human plasmin = Human plasmin (Homo sapiens (Human), UniProt P00747); assay: Inhibition of plasmin (Ki); conditions: substrate KM, enzyme Plasmin
Method: as §1
Measurements were performed in a kinetic interval every 2nd minute for 16 min using a Spectramax M5 (Molecular Devices) measuring the optical absorbance at 405 nm.
as §2

T1 sequence (P03952 391-638): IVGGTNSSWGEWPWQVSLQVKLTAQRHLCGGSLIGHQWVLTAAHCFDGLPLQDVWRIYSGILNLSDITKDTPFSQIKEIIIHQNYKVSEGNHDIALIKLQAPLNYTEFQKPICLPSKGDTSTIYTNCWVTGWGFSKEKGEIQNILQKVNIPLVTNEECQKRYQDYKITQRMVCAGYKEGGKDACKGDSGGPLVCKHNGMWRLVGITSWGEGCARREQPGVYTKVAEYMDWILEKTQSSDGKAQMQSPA
T1 sequence (P03952 20-390 partner): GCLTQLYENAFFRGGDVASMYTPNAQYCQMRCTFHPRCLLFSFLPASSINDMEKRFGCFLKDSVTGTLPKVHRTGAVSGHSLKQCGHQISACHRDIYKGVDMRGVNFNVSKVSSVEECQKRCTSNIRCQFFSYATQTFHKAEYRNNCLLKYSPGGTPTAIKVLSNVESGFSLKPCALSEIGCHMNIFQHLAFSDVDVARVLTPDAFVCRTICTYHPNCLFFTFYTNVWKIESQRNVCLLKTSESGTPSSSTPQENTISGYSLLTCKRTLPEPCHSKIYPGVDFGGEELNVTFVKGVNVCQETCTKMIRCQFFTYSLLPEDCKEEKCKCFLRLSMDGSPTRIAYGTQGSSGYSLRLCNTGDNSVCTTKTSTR
Chain of PKK in kaolin activated human platelet poor plasma (P03952 391-638): as the sequence (P03952 391-638) above
Chain of PKK in kaolin activated human platelet poor plasma (P03952 20-390 partner): as the sequence (P03952 20-390 partner) above
Chain of Human FVIIa (P08709 213-466): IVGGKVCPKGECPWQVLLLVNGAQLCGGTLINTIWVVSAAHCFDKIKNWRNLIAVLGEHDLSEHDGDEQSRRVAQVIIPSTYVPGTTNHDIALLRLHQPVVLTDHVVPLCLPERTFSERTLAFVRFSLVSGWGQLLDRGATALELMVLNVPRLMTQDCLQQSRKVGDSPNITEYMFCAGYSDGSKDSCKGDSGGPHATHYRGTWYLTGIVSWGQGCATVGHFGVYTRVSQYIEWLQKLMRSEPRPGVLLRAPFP
Chain of Human FVIIa (P08709 61-212 partner): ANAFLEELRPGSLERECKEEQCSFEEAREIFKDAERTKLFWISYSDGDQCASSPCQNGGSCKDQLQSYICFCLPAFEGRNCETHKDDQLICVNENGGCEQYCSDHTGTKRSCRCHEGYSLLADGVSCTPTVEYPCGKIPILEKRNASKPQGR
Chain of FVIIa/TF/PL/CaCl2 (P08709 213-466): as the sequence (P08709 213-466) above
Chain of FVIIa/TF/PL/CaCl2 (P08709 61-212 partner): as the sequence (P08709 61-212 partner) above
Chain of FVIIa/TF/PL/CaCl2 (P13726 33-295 partner): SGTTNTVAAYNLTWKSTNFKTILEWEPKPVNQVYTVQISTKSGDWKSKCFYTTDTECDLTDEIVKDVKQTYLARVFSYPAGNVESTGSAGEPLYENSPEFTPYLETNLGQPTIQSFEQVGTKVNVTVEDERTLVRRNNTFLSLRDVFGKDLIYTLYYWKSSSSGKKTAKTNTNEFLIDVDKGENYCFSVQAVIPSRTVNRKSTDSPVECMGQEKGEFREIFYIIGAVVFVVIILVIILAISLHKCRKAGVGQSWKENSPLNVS
Chain of Human plasmin (P00747 581-810): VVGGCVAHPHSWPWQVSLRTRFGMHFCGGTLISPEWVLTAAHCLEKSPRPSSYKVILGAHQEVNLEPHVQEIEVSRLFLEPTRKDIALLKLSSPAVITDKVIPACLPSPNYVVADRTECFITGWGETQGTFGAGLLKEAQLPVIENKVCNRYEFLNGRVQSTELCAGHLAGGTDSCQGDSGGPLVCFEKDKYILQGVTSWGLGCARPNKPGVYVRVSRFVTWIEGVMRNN
Chain of Human plasmin (P00747 97-580 partner): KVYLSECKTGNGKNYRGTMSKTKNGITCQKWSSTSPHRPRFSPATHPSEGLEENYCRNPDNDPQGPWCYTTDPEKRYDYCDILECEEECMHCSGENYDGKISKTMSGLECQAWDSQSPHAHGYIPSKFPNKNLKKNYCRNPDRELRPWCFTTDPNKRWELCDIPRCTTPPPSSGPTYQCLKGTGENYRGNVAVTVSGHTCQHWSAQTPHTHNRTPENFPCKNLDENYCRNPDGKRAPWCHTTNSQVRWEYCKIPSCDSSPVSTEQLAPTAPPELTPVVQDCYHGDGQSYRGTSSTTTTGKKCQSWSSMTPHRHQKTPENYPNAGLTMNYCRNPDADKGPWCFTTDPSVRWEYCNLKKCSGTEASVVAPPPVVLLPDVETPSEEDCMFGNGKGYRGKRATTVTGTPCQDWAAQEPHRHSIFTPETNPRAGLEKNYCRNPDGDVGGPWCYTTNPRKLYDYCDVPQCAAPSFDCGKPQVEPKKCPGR
Chain of human TK1 (P06870 25-262): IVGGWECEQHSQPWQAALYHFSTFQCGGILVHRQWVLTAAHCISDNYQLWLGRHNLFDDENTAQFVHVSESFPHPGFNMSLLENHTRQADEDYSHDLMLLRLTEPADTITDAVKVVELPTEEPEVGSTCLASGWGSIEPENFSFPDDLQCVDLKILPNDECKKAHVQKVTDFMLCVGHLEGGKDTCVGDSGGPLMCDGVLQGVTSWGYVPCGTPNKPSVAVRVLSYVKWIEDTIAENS

SMILES | Ki (Human PKK [1]) [nM] | IC90 [2] [nM] | IC50 (Human PKK [3]) [nM] | Km (FVIIa/TF/PL/CaCl2) [µM] | Km (Human FVIIa) [µM] | Km (human TK1) [µM] | Km (Human plasmin) [µM]
Cc1nc(N2CC3(C2)CC3(F)F)ccc1Cn1cc(C(=O)NCc2cc(Cl)ccc2-n2cnnn2)cn1 [Example 54] | 1 | 969 | 3 | – | – | – | –
Cc1nc(N2CC3CC3C2)ccc1Cn1cc(C(=O)NCc2cc(Cl)ccc2-n2cnnn2)c(Br)n1 (stereo not drawn) [Example 49] | 0.4 | 932 | 1 | – | – | – | –
COc1nn(Cc2ccc(N3CC4CC4C3)nc2)cc1C(=O)NCc1cc(Cl)ccc1-n1cnnn1 (stereo not drawn) [Example 47] | 0.7 | 711 | 3 | – | – | – | –
CCC(NC(=O)C(CC1CCCCC1)NS(C)(=O)=O)C(=O)NC(CCCN=C(N)N)C(=O)Nc1ccc([N+](=O)[O-])cc1 (stereo not drawn) [Pefachrome ® FVIIa] (Ms-[Cha]-[Abu]-Arg-pNA; configuration not given here) | – | – | – | 3920 | 420 | – | –
Cc1cc(=O)oc2cc(NC(=O)[C@H](CCCNC(=N)N)NC(=O)[C@H](Cc3ccccc3)NC(=O)[C@@H]3CCCN3)ccc12 [Example I1295, H-Pro-Phe-Arg-AMC] (H-Pro-Phe-Arg-{AMC}) | – | – | – | – | – | 70 | –
COc1nn(Cc2ccc(N3CC4CC4C3)nc2C)cc1C(=O)NCc1cc(Cl)ccc1-n1cnnn1 (stereo not drawn) [Example 21] | 1 | 713 | 3 | – | – | – | –
Cc1nc(N2CCC3(CCC3)C2)ccc1Cn1cc(C(=O)NCc2cc(Cl)ccc2-n2cnnn2)cn1 [Example 60, 1-[(6-{6-azaspiro[3.4]octan-6-yl}-2-methylpyridin-3-yl)methyl]-N-{[5-chloro-2-(1H-1,2,3,4-tetrazol-1-yl)phenyl]methyl}-1H-pyrazole-4-carboxamide] | 2 | 4070 | 4 | – | – | – | –
O=C(NCc1cc(Cl)ccc1-n1cnnn1)c1cn(Cc2ccc(N3CC4CC4C3)nc2)nc1C(F)F (stereo not drawn) [Example 44] | 0.5 | 341 | 1 | – | – | – | –
Cc1nc(N2CC3CC3C2)ccc1Cn1cc(C(=O)NCc2cc(Cl)ccc2-n2cnnn2)c2cncnc21 (stereo not drawn) [Example 15] | 0.7 | 419 | 2 | – | – | – | –
CC(C)C[C@H](NC(=O)[C@H](N)C(C)C)C(=O)N[C@@H](CCCCN)C(=O)Nc1ccc([N+](=O)[O-])cc1 [Example S2251] (H-[dV]-Leu-Lys-pNA) | – | – | – | – | – | – | 1450
Cc1nc(N2CC3CC3C2)ccc1Cn1cc(C(=O)NCc2cc(Cl)c(F)cc2-n2cnnn2)cn1 (stereo not drawn) [Example 2] | 0.8 | 1150 | 5 | – | – | – | –
Cc1nc(N2CC3CC(C2)C3O)ccc1Cn1cc(C(=O)NCc2cc(Cl)ccc2-n2cnnn2)cn1 (stereo not drawn) [Example 68, N-{[5-chloro-2-(1H-1,2,3,4-tetrazol-1-yl)phenyl]methyl}-1-[(6-{6-hydroxy-3-azabicyclo[3.1.1]heptan-3-yl}-2-methylpyridin-3-yl)methyl]-1H-pyrazole-4-carboxamide] | – | – | 4 | – | – | – | –
O=C(NCc1cc(Cl)ccc1-n1cnnn1)c1cn(Cc2ccc(N3CC4CC4C3)nc2)c2ncccc12 (stereo not drawn) [Example 45] | 0.3 | 106 | 3 | – | – | – | –
Cc1nc(N2CC3CC3C2)ccc1Cn1cc(C(=O)NCc2c(-n3cnnn3)ccc(Cl)c2F)c2cncnc21 (stereo not drawn) [Example 16] | – | – | 0.6 | – | – | – | –

Continued, values first:

Ki (Human PKK [1]) [nM] | IC90 [2] [nM] | IC50 (Human PKK [3]) [nM] | Km (FVIIa/TF/PL/CaCl2) [µM] | Km (Human FVIIa) [µM] | Km (human TK1) [µM] | Km (Human plasmin) [µM] | SMILES
0.8 | 239 | 1 | – | – | – | – | Cc1nc(N2CC3CC3C2)ccc1Cn1cc(C(=O)NCc2cc(Cl)ccc2-n2cnnn2)c(C(F)F)n1 (stereo not drawn) [Example 9]
0.3 | 209 | 0.5 | – | – | – | – | Cc1nc(N2CC3(CC3)C2)ccc1Cn1cc(C(=O)NCc2cc(Cl)ccc2-n2cnnn2)cn1 [Example 63, 1-[(6-{5-azaspiro[2.3]hexan-5-yl}-2-methylpyridin-3-yl)methyl]-N-{[5-chloro-2-(1H-1,2,3,4-tetrazol-1-yl)phenyl]methyl}-1H-pyrazole-4-carboxamide]
0.8 | 396 | 0.9 | – | – | – | – | COCc1nn(Cc2ccc(N3CC4CC4C3)nc2C)cc1C(=O)NCc1cc(Cl)ccc1-n1cnnn1 (stereo not drawn) [Example 13]
– | 184 | 0.4 | – | – | – | – | Cc1nc(N2CC3C(C2)C3(F)F)ccc1Cn1cc(C(=O)NCc2cc(Cl)ccc2-n2cnnn2)cn1 (stereo not drawn) [Example 6]
0.3 | 847 | 0.7 | – | – | – | – | Cc1nc(N2CC3(CCC3)C2)ccc1Cn1cc(C(=O)NCc2cc(Cl)ccc2-n2cnnn2)cn1 [Example 59, 1-[(6-{2-azaspiro[3.3]heptan-2-yl}-2-methylpyridin-3-yl)methyl]-N-{[5-chloro-2-(1H-1,2,3,4-tetrazol-1-yl)phenyl]methyl}-1H-pyrazole-4-carboxamide]
0.4 | 316 | 0.9 | – | – | – | – | Cc1ccc(-n2cnnn2)c(CNC(=O)c2cnn(Cc3ccc(N4CC5CC5C4)nc3C)c2)c1 (stereo not drawn) [Example 5]
0.8 | 252 | 0.9 | – | – | – | – | Cc1nc(N2C[C@@H]3[C@H](C)[C@@H]3C2)ccc1Cn1cc(C(=O)NCc2cc(Cl)ccc2-n2cnnn2)cn1 [Example 87]
0.3 | 202 | 0.5 | – | – | – | – | Cc1nc(N2CC3CC3C2)ccc1Cn1cc(C(=O)NCc2cc(Cl)ccc2-n2cnnn2)cn1 (stereo not drawn) [Example 1, 1-[(6-{3-azabicyclo[3.1.0]hexan-3-yl}-2-methylpyridin-3-yl)methyl]-N-{[5-chloro-2-(1H-1,2,3,4-tetrazol-1-yl)phenyl]-methyl}-1H-pyrazole-4-carboxamide]
0.5 | 316 | 0.8 | – | – | – | – | Cc1nc(N2CC3CC3C2)ccc1Cn1cc(C(=O)NCc2cc(Cl)ccc2-n2cnnn2)c(N)n1 (stereo not drawn) [Example 48]
1 | 341 | 0.7 | – | – | – | – | Cn1cc(-c2nn(Cc3ccc(N4CC5CC5C4)nc3)cc2C(=O)NCc2cc(Cl)ccc2-n2cnnn2)cn1 (stereo not drawn) [Example 46]
0.4 | 103 | 0.6 | – | – | – | – | Nc1nn(Cc2ccc(N3CC4CC4C3)nc2)cc1C(=O)NCc1cc(Cl)ccc1-n1cnnn1 (stereo not drawn) [Example 52]
1 | 257 | 0.6 | – | – | – | – | Cc1nc(N2CC3CC3C2)ccc1Cn1cc(C(=O)NCc2cc(Cl)ccc2-n2cnnn2)c(-c2cnn(C)c2)n1 (stereo not drawn) [Example 42]
0.2 | 170 | 0.4 | – | – | – | – | Cc1nc(N2CC3CC3C2)ccc1Cn1cc(C(=O)NCc2c(-n3cnnn3)ccc(Cl)c2F)cn1 (stereo not drawn) [Example 3]
– | – | 0.6 | – | – | – | – | COCc1nn(Cc2ccc(N3CC4CC4C3)nc2C)cc1C(=O)NCc1c(-n2cnnn2)ccc(Cl)c1F (stereo not drawn) [Example 14]
